What all share (type): in vivo
In series [1] the test system is Anopheles stephensi. The experiment in a line: twelve well tissue culture plate deposit test, knockdown (B23). The following applies: 1 h, read-out: Anopheles stephensi 1 hour % KD. On the procedure:
(§1) The individual wells of a twelve (12) well tissue culture plates were treated with 100 μl of an ethanol solution containing a test compound at a defined concentration. Once the deposits were dry, five non-blood fed adult female Aedes aegypti or Anopheles stephensi (between two to five day old) were added to each well, and sustained with a 10% sucrose solution in a cotton wool plug. Assessment of the knockdown after 1 hour was carried out. Where multiple replicates of a treatment have been undertaken, the mean of those replicates is reported.

A further series deals with Aedes aegypti. Described as above. The following applies: 1 h, read-out: Aedes aegypti 1 hour % KD. The method, then:
as §1

In series [2] the test system is Anopheles coluzzii VK7 lab strain. The experiment in a line: WHOPES tunnel test with live guinea pig baits, Burkina Faso (B17). To be noted: Table B17; for Blood fed: number of mosquitoes. On the procedure:
(§2) The following tests are based on the “WHOPES tunnel tests” (described at http://apps.who.int/iris/bitstream/10665/80270/1/9789241505277_eng.pdf)
(§3) For examples B16-B20, the WHOPES tunnel test procedure was followed with live guniea pig baits wherein B16-B18 were conduced in Burkina Faso with Anopheles gambiae Kisumu, Anopheles coluzzii VK7 lab strain and Anopheles gambiae s.l. VK field strain, respectively; and B19-B20 were conducted in Cote d′Ivoire with Anopheles gambiae Kisumu and Anopheles gambiae Tiassale field strain, respectively.
(§4) The commercial standard Olyset nets used in certain examples are 2% w/w permethrin (approx. 1000 mg/m2, although not all of that is available on the surface at any one time, as a good proportion is in the polymer).
(§5) All tests were done under standardised laboratory controlled conditions (27° C.+2° C. under subdued light). The tunnel apparatus was a 60×30×30 cm glass case open at each end and the floor was lined with wet blue roll in order to maintain humidity. A 30×30×30 cm cage, covered in untreated netting, was placed at the release end. The test nets were cut to 25×25 cm squares and fitted into cardboard frames that allow a 20×20 cm area to be exposed. Nine holes, 1 cm in diameter, were made in the netting in the pattern specified in the WHOPES test. The frames were then fitted into the tunnel one third of the way down its length. A Hemotek device, filled with blood and kept constant at 37° C. to mimic a human host, was placed in the smaller area of the glass tunnel behind the test netting, and the end of the tunnel closed with a netting screen. A human sat at the Hemotek end of the tunnels for the duration of the test. At the start of the test, 100 female mosquitoes (non-blood fed, aged 5-8 days) were introduced into the cage. Mosquitoes are free to fly in the tunnel but have to make contact with the piece of netting and locate the holes in it before passing through to reach the bait.
(§6) After 7 hours the mosquitoes were counted in each section of the tunnel. The number of mosquitoes knocked down and blood fed were recorded. Blood-feeding inhibition was assessed by comparing the proportion of blood-fed females (alive or dead) in treated and control tests. Four tunnels were run simultaneously each day, with one control containing untreated netting included with all runs. Three replicates were carried out per treatment. In case of multiple tests, the mean value is reported.

The test system of series [3] is Anopheles gambiae Kisumu. The experiment in a line: WHOPES tunnel test with live guinea pig baits, Burkina Faso (B16). The following applies: Table B16; for Blood fed: number of mosquitoes. The method, then:
as §2, §3, §4, §5, §6

The test system of series [4] is Anopheles gambiae Tiassale field strain. The experiment in a line: WHOPES tunnel test with live guinea pig baits, Cote d′Ivoire (B20). To be noted: Table B20; for Blood fed: number of mosquitoes. On the procedure: as §2, §3, §4, §5, §6
Series [5] relates to Anopheles stephensi. The series can be described thus: WHOPES tunnel test with Hemotek membrane feeding device (B11-B14). On the procedure:
as §2
(§7) For examples B11-B15 the WHOPES tunnel test procedure was followed, except that live guniea pig baits were replaced with a Hemotek membrane feeding device, filled with blood and kept constant at 37° C. to mimic a human host.
For examples B11-B14, the tunnel test was conducted with Anopheles stephensi;
as §5, §6

Series [6] relates to Anopheles gambiae s.l. VK field strain. The experiment in a line: WHOPES tunnel test with live guinea pig baits, Burkina Faso (B18). The following applies: Table B18; for Blood fed: number of mosquitoes. On the procedure: as §2, §3, §4, §5, §6
The test system of series [7] is Anopheles gambiae Kisumu. The experiment in a line: WHOPES tunnel test with live guinea pig baits, Cote d′Ivoire (B19). To be noted: Table B19; for Blood fed: number of mosquitoes. On the procedure:
as §2, §3, §4, §5, §6

Series [8] concerns Anopheles gambiae, resistant strain AKRON. The series can be described thus: WHOPES tunnel test with Hemotek membrane feeding device (B15). The following applies: Table B15. On the procedure: as §2, §7
For example B15, the tunnel test was conducted with Anopheles gambiae, resistant strain AKRON.
as §4
All tests were done under standardised laboratory controlled conditions (27° C.+2° C. under subdued light). The tunnel apparatus was a 60×30×30 cm glass case open at each end and the floor was lined with wet blue roll in order to maintain humidity. A 30×30×30 cm cage, covered in untreated netting, was placed at the release end. The test nets were cut to 25×25 cm squares and fitted into cardboard frames that allow a 20×20 cm area to be exposed. […]
After 7 hours the mosquitoes were counted in each section of the tunnel. The number of mosquitoes knocked down and blood fed were recorded. Blood-feeding inhibition was assessed by comparing the proportion of blood-fed females (alive or dead) in treated and control tests. […]

Series [9] relates to non-blood fed adult female mosquitoes. The experiment in a line: Bottle assay based on the CDC bottle assay (B21, B22). The following applies: Table B21; rate not given. On the procedure: Based on the “CDC bottle assay” (described at http://www.cdc.gov/malaria/resources/pdf/fsp/ir_manual/ir_cdc_bioassay_en.pdf) 1 ml of ethanol containing a test compound at a defined concentration was added to a 250 ml glass bottle and the bottles were placed on a rolling table to coat the inner surfaces as the solvent evaporated. Once dry, twenty five non-blood fed adult female mosquitoes of the appropriate species and strains (each three day old) were aspirated from the stock culture and gently blown into the exposure bottles. The lid of the bottle was replaced and the bottle placed upright out of direct sun light under standard culture conditions, nominally 28° C. and 60-80% relative humidity.
A stopwatch was started, and the assessment of the knock-down were made after 15 mins and 60 minutes. A mosquito was said to be knocked down if it was unable to stand, following the CDC definition. The bottles were replaced in an upright position when not being assessed.
After one hour the mosquitoes were carefully removed from the bottle with an aspirator and placed in a recovery cup. The mosquitoes were supplied with a 10% sucrose solution on a cotton wool bung, and stored under culture conditions. Assessments of the mortality were made after 24 hours and 48 hours (B21).
Each treatment was replicated a minimum of four times, with the mean knockdown or mortality recorded. In each study, a set of bottles was infested with a known insecticide susceptible strain of mosquitoes from the same genera as the resistant strains.

For series [10], the system named is Anopheles stephensi. The experiment in a line: six well tissue culture plate deposit test, knockdown and mortality (Examples B1-B10). The following applies: for 24 hr mort / 48 hr mort / KD: Table B4, alone or +Comp. (1.3); for KD: knockdown after 1 hour; for knockdown after 1 hour: Alone or Plus Compound (1.3). The method, then:
The individual wells of six (6) well tissue culture plates were treated with 250 μl of an ethanol solution containing a test compound at a defined concentration. Once the deposits were dry, ten non-blood fed adult female Anopheles stephensi (between two to five day old) were added to each well, and sustained with a 10% sucrose solution in a cotton wool plug. Assessment of the knockdown after 1 hour (Tables B1-B10), and mortality after 24 and 48 hours (Tables B1-B4) was carried out.
In case of multiple tests, the mean value is reported.

The mark [11] stands for this setting: Table B12, Deltamethrin 5 mg/m2.

Consider `FC(F)(F)c1ccncc1-c1noc(-c2cccc(Cl)c2)n1` [Compound 1.1], for which the pest or weed control at 0.2 ppm stood at 40% in the series on Anopheles stephensi [1] (Rate 0.2 PPM) and 100% in the series on Aedes aegypti (Rate 0.2 PPM). Further, the pest or weed control at 2 ppm in the series with Anopheles stephensi [1] (Rate 2 PPM) and with Aedes aegypti (Rate 2 PPM) was 100% throughout. Moreover, the pest or weed control at 20 ppm in the series on Anopheles stephensi [1] (Rate 20 PPM) and in the series on Aedes aegypti (Rate 20 PPM) was 100% each time. Besides, the pest or weed control at 200 ppm with Anopheles stephensi [1] (Rate 200 PPM) and with Aedes aegypti (Rate 200 PPM) was 100% throughout.
With `NC(=O)c1cnccc1C(F)(F)F` [Compound 1.3], the “% Blood fed” value worked out at 3.3% in series [2] (50 mg/m2); 1.5% in series [2] (200 mg/m2); 1.5% in the series with Anopheles gambiae Kisumu [3] (50 mg/m2); 0.3% with Anopheles gambiae Kisumu [3] (200 mg/m2); 24.5% in series [4] (50 mg/m2); 3.3% in series [4] (200 mg/m2). For the same compound, the “% Blood fed” value in the series with Anopheles stephensi [5] (Table B11, treated net, Rate 10 mg/m2) is 3%; in series [6] (50 mg/m2), 1.3%; in series [6] (200 mg/m2) it was 1.8%; in the series with Anopheles gambiae Kisumu [7] (50 mg/m2), 25.0%; in the series on Anopheles gambiae Kisumu [7] (200 mg/m2) it was 23.1%; in [8] (Compound (1.3) 25 mg/m2), 0.3%. Also, the Blood fed in series [2] (50 mg/m2) amounted to 10; in [2] (200 mg/m2), 6; in the series with Anopheles gambiae Kisumu [3] (50 mg/m2), 5; with Anopheles gambiae Kisumu [3] (200 mg/m2), 1; in series [4] (50 mg/m2), 66; in [4] (200 mg/m2), 10. For the same compound, the Blood fed in [6] (50 mg/m2) was found to be 4; in series [6] (200 mg/m2) it was 6; in the series on Anopheles gambiae Kisumu [7] (50 mg/m2), 70; in the series on Anopheles gambiae Kisumu [7] (200 mg/m2), 74.
As for `CC1(C)[C@H](C(=O)O[C@H](C#N)c2cccc(Oc3ccccc3)c2)[C@@H]1C=C(Br)Br` [Deltamethrin], in the series on Anopheles stephensi [5] (setting [11]), the “% 1 hour KD” value is reported as 0% and the “% Blood fed” value stood at 0%.
As to `N#CCNC(=O)c1cnccc1C(F)(F)F` [Flonicamid], in series [9], the “24 hour % mort” value worked out at 0%, the “48 hour % mort” value came out at 0% and the “% 1 hour KD” value was 0%.
In the case of `COC(=O)N(C(=O)N1CO[C@@]2(C(=O)OC)Cc3cc(Cl)ccc3C2=N1)c1ccc(OC(F)(F)F)cc1` [Indoxacarb], the “% 24 hour mortality” value with Anopheles stephensi [5] (Table B14, Indoxacarb 20 mg/m2) stood at 7.6%. In addition, the 24 hr mort in the series on Anopheles stephensi [10] (Rate 12.5 ppm), in the series with Anopheles stephensi [10] (Rate 25 ppm), in the series with Anopheles stephensi [10] (Rate 50 ppm) and in the series with Anopheles stephensi [10] (Rate 100 ppm) was 0.0 each time. In addition, the 48 hr mort in the series on Anopheles stephensi [10] (Rate 12.5 ppm), with Anopheles stephensi [10] (Rate 25 ppm), in the series on Anopheles stephensi [10] (Rate 50 ppm) and in the series on Anopheles stephensi [10] (Rate 100 ppm) was 0.0 each time. The KD on Anopheles stephensi [10] (Rate 12.5 ppm), at Anopheles stephensi [10] (Rate 25 ppm), on Anopheles stephensi [10] (Rate 50 ppm) and at Anopheles stephensi [10] (Rate 100 ppm) was 0.0 in each case. For the same compound, the “knockdown after 1 hour” value amounted to 0 with Anopheles stephensi [10] (Table B7, Rate 25 ppm); 0 with Anopheles stephensi [10] (Table B7, Rate 50 ppm); 0 with Anopheles stephensi [10] (Table B7, Rate 100 ppm); 0 with Anopheles stephensi [10] (Table B7, Rate 200 ppm). Also, the “% Blood fed” value in series [8] (Indoxacarb 200 mg/m2) was found to be 4.4%.
For `CCN(CC)c1nc(C)cc(OP(=S)(OC)OC)n1` [pirimiphos-methyl], the “knockdown after 1 hour” value in the series on Anopheles stephensi [10] (Table B10, Rate 0.0625 ppm) stood at 0.0; with Anopheles stephensi [10] (Table B10, Rate 0.125 ppm) it was 0.0.
